Experimental data as given in patent publication US6737383B1, “Herbicidal oxadiazolidines” (priority 1999, dated 2004).

Columns and labels:
surinam grass = assay: Test B pre/postemergence surinam grass; type: in vivo, Brachiaria decumbens
In short: (§1)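 Response is a visual 0-to-10 score relative to untreated plants, where 0 means no effect and 10 means complete control, taken twelve to sixteen days after application. Treatments went onto soil at planting and onto foliage of 1- to 4-leaf plants, using a surfactant-containing non-phytotoxic solvent.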

cocklebur = assay: Test B pre/postemergence cocklebur; type: in vivo, Xanthium strumarium
In short: as §1

corn = assay: Test B pre/postemergence corn; type: in vivo, Zea mays
In short: as §1

crabgrass = assay: Test B pre/postemergence crabgrass; type: in vivo, Digitaria sanguinalis
In short: as §1

giant foxtail = assay: Test B pre/postemergence giant foxtail; type: in vivo, Setaria faberii
In short: as §1

morningglory = assay: Test B pre/postemergence morningglory; type: in vivo, Ipomoea hederacea
In short: as §1

pigweed = assay: Test B pre/postemergence pigweed; type: in vivo, Amaranthus retroflexus
In short: as §1

rape = assay: Test B pre/postemergence rape; type: in vivo, Brassica napus
In short: as §1

sugar beet = assay: Test B pre/postemergence sugar beet; type: in vivo, Beta vulgaris
In short: as §1

wheat = assay: Test B pre/postemergence wheat; type: in vivo, Triticum aestivum
In short: as §1

wild oat = assay: Test B pre/postemergence wild oat; type: in vivo, Avena fatua
In short: as §1

purple nutsedge = assay: Test B pre/postemergence purple nutsedge; type: in vivo, Cyperus rotundus
In short: as §1

rice = assay: Test B flood test rice; type: in vivo, Oryza sativa
In short: (§2)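 Plants were grown to the 2-leaf stage before treatment with test chemical, then held in a greenhouse for twelve to sixteen days. Injury was visually rated against untreated controls on a 0–10 scale, where 0 is no effect and 10 is complete control.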

smallflower flatsedge = assay: Test B flood test smallflower flatsedge; type: in vivo, Cyperus difformis
In short: as §2

duck salad = assay: Test B flood test duck salad; type: in vivo, Heteranthera limosa
In short: as §2

bamyardgrass = assay: Test B flood test barnyardgrass; type: in vivo, Echinochloa crus-galli
In short: as §2

[1] = Preemergence, Rate 62 g/ha, scale of 0 to 10 where 0 is no effect and 10 is complete control
[2] = Preemergence, Rate 250 g/ha, scale of 0 to 10 where 0 is no effect and 10 is complete control
[3] = Preemergence, Rate 500 g/ha, scale of 0 to 10 where 0 is no effect and 10 is complete control
[4] = Rate 62 g/ha, Postemergence, scale 0 to 10 (0 no effect, 10 complete control)
[5] = Rate 125 g/ha, Postemergence, scale of 0 to 10 where 0 is no effect and 10 is complete control
[6] = Rate 250 g/ha, Postemergence, scale of 0 to 10 where 0 is no effect and 10 is complete control
[7] = Rate 500 g/ha, Postemergence, scale 0 to 10, 0 no effect, 10 complete control
[8] = Rate 62 g/ha, headed Pre-emergence (flood test species), scale 0 to 10 (0 no effect, 10 complete control)
[9] = Rate 125 g/ha, Pre-emergence, flood test species, scale 0 to 10 where 0 is no effect and 10 is complete control
[10] = Rate 250 g/ha, Pre-emergence, flood-test species, scale 0 to 10, 0 is no effect, 10 is complete control
[11] = Rate 500 g/ha, Pre-emergence, flood test species, scale 0 to 10 (0 no effect, 10 complete control)

CSCCn1c(=O)on(C(=O)N(c2ccc(F)cc2)C(C)C)c1=O [Compound 314]
B. signalgrass plant response rating (surinam grass; [1]): 0 | B. signalgrass plant response rating (0 to 10 scale, 0 is no effect, 10 is complete control) (surinam grass; Preemergence, Rate 125 g/ha): 2 | B. signalgrass plant response rating (surinam grass; [2]): 6 | B. signalgrass plant response rating (surinam grass; [3]): 6 | B. signalgrass plant response rating (surinam grass; [4]): 0 | B. signalgrass plant response rating (surinam grass; [5]): 0 | Plant response rating, B. signalgrass (surinam grass; [6]): 0 | B. signalgrass plant response rating (surinam grass; [7]): 3 | Cocklebur plant response rating (cocklebur; [1]): 0 | Cocklebur plant response rating (0 to 10 scale) (cocklebur; Preemergence, Rate 125 g/ha): 0 | Cocklebur plant response rating (cocklebur; [2]): 0 | Cocklebur plant response rating (cocklebur; [3]): 0 | Cocklebur plant response rating (cocklebur; [4]): 0 | Plant response rating, Cocklebur (cocklebur; [6]): 1 | Cocklebur plant response rating (cocklebur; [7]): 1 | Corn plant response rating (corn; [1]): 0 | Corn plant response rating (0 to 10 scale) (corn; Preemergence, Rate 125 g/ha): 0 | Corn plant response rating (corn; [2]): 0 | Corn plant response rating (corn; [3]): 0 | Corn plant response rating (corn; [4]): 0 | Corn plant response rating (corn; [5]): 0 | Plant response rating, Corn (corn; [6]): 0 | Corn plant response rating (corn; [7]): 0 | Crabgrass plant response rating (crabgrass; [1]): 1 | Crabgrass plant response rating (0 to 10 scale) (crabgrass; Preemergence, Rate 125 g/ha): 3 | Crabgrass plant response rating (crabgrass; [2]): 7 | Crabgrass plant response rating (crabgrass; [3]): 8 | Crabgrass plant response rating (crabgrass; [4]): 0 | Crabgrass plant response rating (crabgrass; [5]): 0 | Plant response rating, Crabgrass (crabgrass; [6]): 4 | Giant foxtail plant response rating (giant foxtail; [1]): 3 | Giant foxtail plant response rating (0 to 10 scale) (giant foxtail; Preemergence, Rate 125 g/ha): 6 | Giant foxtail plant response rating (giant foxtail; [2]): 7 | Giant foxtail plant response rating (giant foxtail; [3]): 10 | Giant foxtail plant response rating (giant foxtail; [4]): 0 | Giant foxtail plant response rating (giant foxtail; [5]): 0 | Plant response rating, Giant foxtail (giant foxtail; [6]): 3 | Morningglory plant response rating (morningglory; [1]): 0 | Morningglory plant response rating (0 to 10 scale) (morningglory; Preemergence, Rate 125 g/ha): 0 | Morningglory plant response rating (morningglory; [2]): 0 | Morningglory plant response rating (morningglory; [3]): 0 | Morningglory plant response rating (morningglory; [4]): 2 | Morningglory plant response rating (morningglory; [5]): 2 | Plant response rating, Morningglory (morningglory; [6]): 3 | Redroot pigweed plant response rating (pigweed; [1]): 0 | Redroot pigweed plant response rating (0 to 10 scale) (pigweed; Preemergence, Rate 125 g/ha): 2 | Redroot pigweed plant response rating (pigweed; [2]): 2 | Redroot pigweed plant response rating (pigweed; [3]): 9 | Redroot pigweed plant response rating (pigweed; [4]): 0 | Redroot pigweed plant response rating (pigweed; [5]): 0 | Plant response rating, Redroot pigweed (pigweed; [6]): 0 | Rape plant response rating (rape; [1]): 0 | Rape plant response rating (rape; [2]): 3 | Rape plant response rating (rape; [3]): 7 | Rape plant response rating (rape; [4]): 0 | Rape plant response rating (rape; [5]): 0 | Plant response rating, Rape (rape; [6]): 0 | Sugarbeets plant response rating (sugar beet; [1]): 0 | Sugarbeets plant response rating (0 to 10 scale) (sugar beet; Preemergence, Rate 125 g/ha): 2 | Sugarbeets plant response rating (sugar beet; [2]): 2 | Sugarbeets plant response rating (sugar beet; [3]): 6 | Sugarbeets plant response rating (sugar beet; [4]): 0 | Sugarbeets plant response rating (sugar beet; [5]): 0 | Plant response rating, Sugarbeets (sugar beet; [6]): 0 | Wheat plant response rating (wheat; [1]): 0 | Wheat plant response rating (0 to 10 scale) (wheat; Preemergence, Rate 125 g/ha): 0 | Wheat plant response rating (wheat; [2]): 0 | Wheat plant response rating (wheat; [3]): 3 | Wheat plant response rating (wheat; [4]): 0 | Wheat plant response rating (wheat; [5]): 0 | Plant response rating, Wheat (wheat; [6]): 3 | Wild oats plant response rating (wild oat; [1]): 0 | Wild oats plant response rating (0 to 10 scale) (wild oat; Preemergence, Rate 125 g/ha): 2 | Wild oats plant response rating (wild oat; [2]): 2 | Wild oats plant response rating (wild oat; [3]): 3 | Wild oats plant response rating (wild oat; [4]): 0 | Wild oats plant response rating (wild oat; [5]): 0 | Plant response rating, Wild oats (wild oat; [6]): 2 | Nutsedge plant response rating (purple nutsedge; [1]): 0 | Nutsedge plant response rating (purple nutsedge; [3]): 0 | Nutsedge plant response rating (purple nutsedge; [4]): 0 | Nutsedge plant response rating (purple nutsedge; [5]): 0 | Plant response rating, Nutsedge (purple nutsedge; [6]): 0 | Rice plant response rating (rice; [8]): 0 | Rice plant response rating (rice; [9]): 0 | Rice plant response rating (rice; [10]): 0 | Rice plant response rating (rice; [11]): 0 | S. Flatsedge plant response rating (smallflower flatsedge; [8]): 0 | S. Flatsedge plant response rating (smallflower flatsedge; [9]): 0 | S. Flatsedge plant response rating (smallflower flatsedge; [10]): 0 | S. Flatsedge plant response rating (smallflower flatsedge; [11]): 0 | Ducksalad plant response rating (duck salad; [8]): 0 | Ducksalad plant response rating (duck salad; [9]): 0 | Ducksalad plant response rating (duck salad; [10]): 0 | Ducksalad plant response rating (duck salad; [11]): 0 | Barnyardgrass plant response rating (bamyardgrass; [8]): 0 | Barnyardgrass plant response rating (bamyardgrass; [9]): 0 | Barnyardgrass plant response rating (bamyardgrass; [10]): 0 | Barnyardgrass plant response rating (bamyardgrass; [11]): 0
